Source: ChEMBL document CHEMBL1909536, “7-Oxopyrrolopyridine-derived DPP4 inhibitors-mitigation of CYP and hERG liabilities via introduction of polar functionalities in the active site” (Bioorg Med Chem Lett, 2011)
pIC50, pKi: −log10 of the molar value. Values joined by “and” are separate entries in the source; they are usually repeats but may differ in a detail not shown here. Identical values can stand only once. Blank lines part the entries; values can stand above or below the compound they belong to.

Assays:
Cytochrome P450 3A4 [1] = molecular target: T1, Cytochrome P450 3A4 (Homo sapiens, UniProt P08684); assay: Inhibition of CYP3A4 up to 40 uM; type: ADME
Cytochrome P450 3A4 [2] = molecular target: T1, Cytochrome P450 3A4; assay: Inhibition of CYP3A4 in presence of the substrate 7-bezyloxy-4-trifluoromethyl coumarin; type: ADME
Dipeptidyl peptidase 9 = Dipeptidyl peptidase 9 (Homo sapiens, UniProt Q86TI2); assay: Inhibition of DPP9
hERG (KCNH2) = hERG (KCNH2) (Homo sapiens, UniProt Q12809); assay: (§1) Inhibition of human ERG at 10 uM by patch clamp assay; conditions: INH
Dipeptidyl peptidase 8 = Dipeptidyl peptidase 8 (Homo sapiens, UniProt Q6V1X1); assay: Inhibition of DPP8
Cytochrome P450 3A4 [3] = molecular target: T1, Cytochrome P450 3A4; assay: Inhibition of CYP3A4; type: ADME
[4] = Tmax in rat at 10 umol/kg; type: ADME, organism-based; conditions: in vivo
[5] = molecular target: T2, Nuclear receptor subfamily 1 group I member 2 (Homo sapiens, UniProt O75469); assay: Inhibition of PXR
T2 sequence (O75469 whole entry): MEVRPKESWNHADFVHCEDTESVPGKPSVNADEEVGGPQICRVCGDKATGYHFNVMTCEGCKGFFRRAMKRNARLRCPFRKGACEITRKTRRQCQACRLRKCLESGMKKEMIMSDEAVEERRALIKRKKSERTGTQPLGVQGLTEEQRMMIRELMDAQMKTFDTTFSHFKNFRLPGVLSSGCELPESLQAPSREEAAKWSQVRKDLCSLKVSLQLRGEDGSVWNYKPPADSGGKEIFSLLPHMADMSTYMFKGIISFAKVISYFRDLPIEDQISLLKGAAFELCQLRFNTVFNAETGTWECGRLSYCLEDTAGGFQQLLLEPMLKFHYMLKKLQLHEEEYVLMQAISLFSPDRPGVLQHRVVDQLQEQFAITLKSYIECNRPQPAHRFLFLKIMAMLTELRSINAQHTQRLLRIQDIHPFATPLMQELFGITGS

[6] = Cmax in rat at 10 umol/kg; type: ADME, organism-based; set-up: dose 10 umol/kg; conditions: in vivo
Cytochrome P450 2C19 = Cytochrome P450 2C19 (Homo sapiens, UniProt P33261); assay: Inhibition of CYP2C19; type: ADME
Cytochrome P450 3A4 [7] = molecular target: T1, Cytochrome P450 3A4; assay: Inhibition of CYP3A4 in presence of the substrate 7-bezyloxy resorufin; type: ADME
Dipeptidyl peptidase 4 = Dipeptidyl peptidase 4 (Homo sapiens, UniProt P27487); assay: Inhibition of DPP4
[8] = molecular target: T3, Voltage-gated inwardly rectifying potassium channel KCNH2 (Homo sapiens, UniProt Q12809); assay: Inhibition of human ERG by flux assay
[9] = molecular target: T3, Voltage-gated inwardly rectifying potassium channel KCNH2; assay: as §1; conditions: 10 µM
[10] = molecular target: T3, Voltage-gated inwardly rectifying potassium channel KCNH2
[11] = Oral availability in rat; type: ADME, organism-based; conditions: in vivo
[12] = Half life in rat; type: ADME, organism-based; conditions: in vivo

Chain of Dipeptidyl peptidase 8 (Q6V1X1 whole entry): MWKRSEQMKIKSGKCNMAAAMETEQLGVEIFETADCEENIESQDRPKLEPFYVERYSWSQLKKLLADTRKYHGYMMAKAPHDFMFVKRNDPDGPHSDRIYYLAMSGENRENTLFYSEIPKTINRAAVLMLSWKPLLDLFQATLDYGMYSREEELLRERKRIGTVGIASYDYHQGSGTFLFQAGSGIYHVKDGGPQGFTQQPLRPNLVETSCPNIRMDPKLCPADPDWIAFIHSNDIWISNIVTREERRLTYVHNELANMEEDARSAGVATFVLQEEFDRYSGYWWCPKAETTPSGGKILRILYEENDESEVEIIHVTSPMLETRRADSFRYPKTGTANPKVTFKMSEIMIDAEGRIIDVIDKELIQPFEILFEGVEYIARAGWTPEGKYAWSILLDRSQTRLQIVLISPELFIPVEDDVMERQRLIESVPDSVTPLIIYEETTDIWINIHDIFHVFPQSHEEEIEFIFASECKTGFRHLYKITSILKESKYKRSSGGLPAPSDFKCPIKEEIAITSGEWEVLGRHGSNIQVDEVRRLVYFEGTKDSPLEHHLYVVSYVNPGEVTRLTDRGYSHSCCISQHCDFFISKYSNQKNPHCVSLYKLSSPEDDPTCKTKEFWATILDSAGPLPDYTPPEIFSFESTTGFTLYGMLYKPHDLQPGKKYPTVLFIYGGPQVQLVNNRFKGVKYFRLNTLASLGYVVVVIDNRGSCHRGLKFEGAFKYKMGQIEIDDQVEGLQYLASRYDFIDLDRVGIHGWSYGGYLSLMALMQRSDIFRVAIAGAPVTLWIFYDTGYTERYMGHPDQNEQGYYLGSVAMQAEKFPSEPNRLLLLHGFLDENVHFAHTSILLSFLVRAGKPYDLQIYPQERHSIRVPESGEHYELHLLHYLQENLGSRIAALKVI
T3 sequence (Q12809 whole entry): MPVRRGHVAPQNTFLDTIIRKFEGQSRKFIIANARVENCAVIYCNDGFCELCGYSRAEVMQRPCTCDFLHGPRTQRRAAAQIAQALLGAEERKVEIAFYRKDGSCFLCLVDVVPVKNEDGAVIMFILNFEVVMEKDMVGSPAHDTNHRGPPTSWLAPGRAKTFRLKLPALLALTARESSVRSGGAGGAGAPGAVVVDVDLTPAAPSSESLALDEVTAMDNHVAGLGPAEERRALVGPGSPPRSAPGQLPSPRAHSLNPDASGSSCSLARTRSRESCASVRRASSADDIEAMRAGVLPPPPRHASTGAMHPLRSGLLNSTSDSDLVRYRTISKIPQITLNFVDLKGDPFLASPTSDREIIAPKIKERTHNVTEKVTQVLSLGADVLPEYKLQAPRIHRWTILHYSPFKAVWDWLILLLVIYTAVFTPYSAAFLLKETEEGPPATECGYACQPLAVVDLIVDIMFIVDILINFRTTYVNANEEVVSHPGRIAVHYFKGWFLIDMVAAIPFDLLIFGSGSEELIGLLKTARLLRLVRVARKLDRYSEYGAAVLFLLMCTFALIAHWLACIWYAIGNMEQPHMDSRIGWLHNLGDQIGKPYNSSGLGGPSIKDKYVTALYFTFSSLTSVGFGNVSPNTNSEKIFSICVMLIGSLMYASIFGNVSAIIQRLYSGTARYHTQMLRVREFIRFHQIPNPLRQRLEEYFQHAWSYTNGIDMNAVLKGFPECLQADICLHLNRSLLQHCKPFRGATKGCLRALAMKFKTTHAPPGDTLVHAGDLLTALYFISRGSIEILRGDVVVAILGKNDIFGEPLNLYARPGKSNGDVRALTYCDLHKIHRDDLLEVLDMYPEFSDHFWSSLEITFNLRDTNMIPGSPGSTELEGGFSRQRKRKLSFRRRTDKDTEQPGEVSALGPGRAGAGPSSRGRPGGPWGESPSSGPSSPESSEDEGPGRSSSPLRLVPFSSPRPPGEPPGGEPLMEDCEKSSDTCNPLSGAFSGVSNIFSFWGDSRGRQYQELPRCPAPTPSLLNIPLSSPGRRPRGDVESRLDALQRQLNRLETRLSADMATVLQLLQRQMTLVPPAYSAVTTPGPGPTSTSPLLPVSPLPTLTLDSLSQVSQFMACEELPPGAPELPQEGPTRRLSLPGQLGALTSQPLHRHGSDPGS
Chain of hERG (KCNH2) (Q12809 whole entry): as above
Chain of Dipeptidyl peptidase 4 (P27487 whole entry): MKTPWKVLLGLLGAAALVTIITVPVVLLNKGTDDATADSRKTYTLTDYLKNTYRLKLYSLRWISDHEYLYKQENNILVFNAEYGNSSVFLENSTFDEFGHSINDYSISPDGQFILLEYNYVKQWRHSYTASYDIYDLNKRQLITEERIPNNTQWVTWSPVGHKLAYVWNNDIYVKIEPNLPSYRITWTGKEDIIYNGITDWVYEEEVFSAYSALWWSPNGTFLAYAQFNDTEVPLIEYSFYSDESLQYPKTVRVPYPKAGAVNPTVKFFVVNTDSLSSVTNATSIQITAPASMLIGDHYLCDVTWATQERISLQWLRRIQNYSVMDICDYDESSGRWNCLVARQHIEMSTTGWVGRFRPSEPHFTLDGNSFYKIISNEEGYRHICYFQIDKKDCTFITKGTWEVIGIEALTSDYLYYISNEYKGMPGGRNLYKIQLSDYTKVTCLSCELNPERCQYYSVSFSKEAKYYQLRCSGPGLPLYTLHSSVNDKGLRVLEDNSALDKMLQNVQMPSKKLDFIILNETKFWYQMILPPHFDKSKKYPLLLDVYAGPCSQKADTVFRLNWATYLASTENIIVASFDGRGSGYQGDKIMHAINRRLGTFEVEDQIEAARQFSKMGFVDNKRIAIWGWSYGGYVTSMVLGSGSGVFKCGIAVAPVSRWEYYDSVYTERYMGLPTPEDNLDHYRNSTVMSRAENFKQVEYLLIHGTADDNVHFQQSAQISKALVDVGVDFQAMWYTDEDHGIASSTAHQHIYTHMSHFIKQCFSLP
Chain of Cytochrome P450 2C19 (P33261 whole entry): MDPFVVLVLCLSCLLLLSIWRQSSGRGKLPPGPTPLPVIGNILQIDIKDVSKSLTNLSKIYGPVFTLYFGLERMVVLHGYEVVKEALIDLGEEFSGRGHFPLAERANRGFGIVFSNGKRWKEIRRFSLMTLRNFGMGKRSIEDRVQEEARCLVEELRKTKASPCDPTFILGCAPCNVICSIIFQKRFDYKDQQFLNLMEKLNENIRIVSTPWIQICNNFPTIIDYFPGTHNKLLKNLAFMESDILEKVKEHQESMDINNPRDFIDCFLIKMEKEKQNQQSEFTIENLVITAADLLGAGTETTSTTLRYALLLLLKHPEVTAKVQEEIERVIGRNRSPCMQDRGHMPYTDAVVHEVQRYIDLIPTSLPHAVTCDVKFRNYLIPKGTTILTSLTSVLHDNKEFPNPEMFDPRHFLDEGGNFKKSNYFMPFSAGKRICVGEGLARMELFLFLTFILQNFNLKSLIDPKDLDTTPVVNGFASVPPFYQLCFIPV
T1 sequence (P08684 whole entry): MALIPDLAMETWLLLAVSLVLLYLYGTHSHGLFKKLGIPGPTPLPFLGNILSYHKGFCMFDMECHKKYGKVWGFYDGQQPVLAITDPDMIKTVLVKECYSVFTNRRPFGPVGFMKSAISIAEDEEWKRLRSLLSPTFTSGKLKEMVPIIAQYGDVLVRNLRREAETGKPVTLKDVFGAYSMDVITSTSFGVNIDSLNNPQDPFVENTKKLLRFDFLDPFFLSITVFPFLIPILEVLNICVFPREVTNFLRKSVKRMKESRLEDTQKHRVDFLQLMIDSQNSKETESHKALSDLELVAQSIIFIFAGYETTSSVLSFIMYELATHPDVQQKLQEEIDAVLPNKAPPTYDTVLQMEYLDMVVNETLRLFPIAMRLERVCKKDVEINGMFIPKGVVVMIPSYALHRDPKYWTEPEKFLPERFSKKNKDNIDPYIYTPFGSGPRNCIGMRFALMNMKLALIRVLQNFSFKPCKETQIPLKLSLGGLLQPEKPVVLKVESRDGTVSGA

SMILES: Cc1nc2c(c(-c3ccc(Cl)cc3Cl)c1CN)CN(CC(=O)N1CCOCC1)C2=O (single isomer, unassigned; atropisomer)
pIC50 (Cytochrome P450 3A4 [1]): < 4.77

SMILES: Cc1nc2c(c(-c3ccc(Cl)cc3Cl)c1CN)CN(CC(=O)N1CCC(C(N)=O)CC1)C2=O (single isomer, unassigned; atropisomer)
pIC50 (Cytochrome P450 3A4 [1]): < 4.77

SMILES: Cc1nc2c(c(-c3ccc(Cl)cc3Cl)c1CN)CN(c1ccc(Cl)cc1)C2=O (single isomer, unassigned; atropisomer)
pIC50 (Cytochrome P450 3A4 [2]): 6.41
inhibition at 10 µM (hERG (KCNH2)): 82%

SMILES: CC(=O)N1CCN(C(=O)CN2Cc3c(nc(C)c(CN)c3-c3ccc(Cl)cc3Cl)C2=O)CC1
pIC50 (Cytochrome P450 3A4 [1]): < 4.77

SMILES: Cc1nc2c(c(-c3ccc(Cl)cc3Cl)c1CN)CN(Cc1ccccc1)C2
pIC50 (Cytochrome P450 3A4 [2]): 6.11
inhibition at 10 µM (hERG (KCNH2)): 67%
pKi (Dipeptidyl peptidase 8): < 4.52
EC20 [5]: 1.1 µM
EC60 [5]: 3.3 µM
pKi (Dipeptidyl peptidase 9): < 4.52
Cmax [6]: 76 nM
pIC50 (Cytochrome P450 2C19): 6.47
pIC50 (Cytochrome P450 3A4 [7]): 6.47

SMILES: Cc1ccc(N2Cc3c(nc(C)c(CN)c3-c3ccc(Cl)cc3Cl)C2=O)cc1 (single isomer, unassigned; atropisomer)
pIC50 (Cytochrome P450 3A4 [2]): 6.57
inhibition at 10 µM (hERG (KCNH2)): 84%

SMILES: Cc1nc2cn(Cc3ccccc3)cc2c(-c2ccc(Cl)cc2Cl)c1CN
pIC50 [8]: 4.85
pIC50 (Cytochrome P450 3A4 [2]): 5.96
EC20 [5]: 1.9 µM
EC60 [5]: > 5.6 µM
pIC50 (Cytochrome P450 2C19): 6.02
pIC50 (Cytochrome P450 3A4 [7]): 6.14

SMILES: COc1cc2c(cc1OC)-c1nc(N)c(CN)c(-c3ccc(Cl)cc3Cl)c1C2
pIC50 (Dipeptidyl peptidase 4): 8.15

SMILES: COc1ccccc1N1Cc2c(nc(C)c(CN)c2-c2ccc(Cl)cc2Cl)C1=O (atropisomer R)
pIC50 (Cytochrome P450 3A4 [2]): 5.82 and 5.89 and 5.66
INH [9]: 67% and 68%
inhibition at 10 µM (hERG (KCNH2)): 63%

SMILES: Cc1nc2c(c(-c3ccc(Cl)cc3Cl)c1CN)CN(CC(=O)NCc1cccnc1)C2=O
pIC50 [10]: 4.10
pIC50 (Cytochrome P450 3A4 [1]): 5.15

SMILES: Cc1nc2c(c(-c3ccc(Cl)cc3Cl)c1CN)CN(c1ccccc1)C2=O (single isomer, unassigned; atropisomer)
bioavailability [11]: 78%
pIC50 (Cytochrome P450 3A4 [2]): 5.92
inhibition at 10 µM (hERG (KCNH2)): 69%
half-life [12]: 4.4 h

SMILES: Cc1nc2c(c(-c3ccc(Cl)cc3Cl)c1CN)CN(c1ccc(C#N)cc1)C2=O (single isomer, unassigned; atropisomer)
pIC50 (Cytochrome P450 3A4 [2]): 6.17
inhibition at 10 µM (hERG (KCNH2)): 97%

SMILES: NCc1c(-c2ccc(Cl)cc2Cl)cc(-c2ccccc2)nc1N
pIC50 (Dipeptidyl peptidase 4): 6.04

SMILES: Cc1nc2c(c(-c3ccc(Cl)cc3Cl)c1CN)CN(CC(=O)N1CCN(S(C)(=O)=O)CC1)C2=O (single isomer, unassigned; atropisomer)
pIC50 (Cytochrome P450 3A4 [1]): < 4.77

SMILES: Cc1nc2c(c(-c3ccc(Cl)cc3Cl)c1CN)CN(c1ccc(F)cc1)C2=O (single isomer, unassigned; atropisomer)
pIC50 (Cytochrome P450 3A4 [2]): 5.85
inhibition at 10 µM (hERG (KCNH2)): 92%

Continued, in another order:

pIC50 (Cytochrome P450 3A4 [2]): 4.66
pKi (Dipeptidyl peptidase 9): < 4.52
SMILES: COCCN1Cc2c(nc(C)c(CN)c2-c2ccc(Cl)cc2Cl)C1=O (single isomer, unassigned; atropisomer)

pIC50 (Cytochrome P450 3A4 [2]): 4.77
SMILES: COC(=O)CN1Cc2c(nc(C)c(CN)c2-c2ccc(Cl)cc2Cl)C1=O (single isomer, unassigned; atropisomer)

pIC50 (Cytochrome P450 3A4 [1]): < 4.77
SMILES: Cc1nc2c(c(-c3ccc(Cl)cc3Cl)c1CN)CN(CC(=O)N1CCCC1)C2=O (single isomer, unassigned; atropisomer)

pIC50 (Cytochrome P450 3A4 [2]): < 4.40
pKi (Dipeptidyl peptidase 8): < 4.52
inhibition (INH) (Cytochrome P450 3A4 [3]): Not Active
pKi (Dipeptidyl peptidase 9): < 4.52
SMILES: Cc1nc2c(c(-c3ccc(Cl)cc3Cl)c1CN)CNC2=O (single isomer, unassigned; atropisomer)
inhibition at 10 µM (hERG (KCNH2)): 68%

Tmax [4]: 0.417 h
EC20 [5]: > 50 µM
EC60 [5]: > 50 µM
Cmax [6]: 32 nM
pIC50 (Cytochrome P450 3A4 [1]): < 4.77
SMILES: CNC(=O)CN1Cc2c(nc(C)c(CN)c2-c2ccc(Cl)cc2Cl)C1=O (single isomer, unassigned; atropisomer)

pIC50 (Cytochrome P450 3A4 [2]): < 4.40
pKi (Dipeptidyl peptidase 4): 7.54
pKi (Dipeptidyl peptidase 8): < 4.52
SMILES: Cc1nc2c(c(-c3ccc(Cl)cc3Cl)c1CN)CN(C)C2=O (single isomer, unassigned; atropisomer)

pIC50 (Cytochrome P450 3A4 [1]): < 4.77
SMILES: Cc1nc2c(c(-c3ccc(Cl)cc3Cl)c1CN)CN(CC(=O)Nc1ccnn1C)C2=O

pIC50 (Cytochrome P450 3A4 [1]): < 4.77
SMILES: CCN(CC)C(=O)CN1Cc2c(nc(C)c(CN)c2-c2ccc(Cl)cc2Cl)C1=O

pKi (Dipeptidyl peptidase 4): 9.17
pKi (Dipeptidyl peptidase 9): < 5.00
pIC50 (Cytochrome P450 3A4 [1]): < 4.77
SMILES: Cc1nc2c(c(-c3ccc(Cl)cc3Cl)c1CN)CN(CC(=O)N1CCN(C)CC1)C2=O (atropisomer, axis not shown)

pIC50 (Cytochrome P450 3A4 [2]): 5.55
EC20 [5]: 0.47 µM
EC60 [5]: 1.4 µM
Cmax [6]: 500 nM
pIC50 (Cytochrome P450 2C19): 4.82
pIC50 (Cytochrome P450 3A4 [7]): 5.85
SMILES: Cc1nc2c(c(-c3ccc(Cl)cc3Cl)c1CN)CN(Cc1ccccc1)C2=O (single isomer, unassigned; atropisomer)

pIC50 (Cytochrome P450 3A4 [1]): < 4.77
SMILES: Cc1nc2c(c(-c3ccc(Cl)cc3Cl)c1CN)CN(CC(N)=O)C2=O (single isomer, unassigned; atropisomer)

pIC50 (Cytochrome P450 3A4 [2]): < 4.40
SMILES: Cc1nc2c(c(-c3ccc(Cl)cc3Cl)c1CN)CN(CC(=O)O)C2=O (single isomer, unassigned; atropisomer)

pIC50 (Cytochrome P450 3A4 [2]): < 4.40
pKi (Dipeptidyl peptidase 4): 8.05
pKi (Dipeptidyl peptidase 8): < 4.52
pKi (Dipeptidyl peptidase 9): < 4.52
SMILES: Cc1nc2c(c(-c3ccc(Cl)cc3Cl)c1CN)CN(CCO)C2=O (single isomer, unassigned; atropisomer)

pIC50 (Cytochrome P450 3A4 [1]): < 4.77
SMILES: Cc1nc2c(c(-c3ccc(Cl)cc3Cl)c1CN)CN(CC(=O)N(C)C)C2=O (single isomer, unassigned; atropisomer)

pIC50 (Cytochrome P450 3A4 [2]): 5.60
SMILES: COc1ccc(N2Cc3c(nc(C)c(CN)c3-c3ccc(Cl)cc3Cl)C2=O)cc1 (single isomer, unassigned; atropisomer)
inhibition at 10 µM (hERG (KCNH2)): 67%
